Some test systems named below: OVCAR-8 ovarian; K-562 leukemia; SF-539 CNS; M14 melanoma; NCI-H226 lung; BT-549 breast; HCC-2998 colon; RPMI-8226 leukemia; MDA-MB-435; UACC-257 melanoma.
Experiment in all cases: NCI-60 cell line screen, 48 h

Structures are written as SMILES.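 A five-concentration, 48-hour dose response in 96-well plates underlies each endpoint, interpolated linearly between surrounding concentrations. At the GI50, growth is halved. At the TGI there is no net growth.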 Bounds are passed on as bounds.

Consider `CN1CCN(c2ccc3nc(-c4[nH]ncc4Nc4ncnc5c4OCCCN5)[nH]c3c2)CC1`, for which the GI50 with OVCAR-8 ovarian is 17.6 nM; with K-562 leukemia, < 10 nM; with SF-539 CNS, < 10 nM; in the test with M14 melanoma, < 11.5 nM; in the test on NCI-H226 lung it was < 10 nM; in the test with BT-549 breast it was 10.8 nM. Further, the GI50 in the test on HCC-2998 colon is 15.9 nM; with RPMI-8226 leukemia it was 41.8 nM; with MDA-MB-435, < 10 nM; with UACC-257 melanoma, 25.2 nM. The TGI was 593 nM in the test with OVCAR-8 ovarian; 29800 nM in the test on K-562 leukemia; 21.4 nM with SF-539 CNS; 70.6 nM in the test with M14 melanoma; 57.3 nM with NCI-H226 lung; 38.4 nM with BT-549 breast. Besides, the TGI with HCC-2998 colon was determined as 76.2 nM; in the test on RPMI-8226 leukemia it was 155 nM; in the test with MDA-MB-435 it was 81 nM; in the test with UACC-257 melanoma, 213 nM.
Turning to `C=C(C)[C@@H]1CC[C@]2(C(=O)O)CC[C@]3(C)[C@H](CC[C@@H]4[C@@]5(C)C/C(=C/c6cccc(I)c6)C(=O)C(C)(C)[C@@H]5CC[C@]43C)[C@@H]12`, the GI50 is 2870 nM with OVCAR-8 ovarian; 2370 nM in the test with K-562 leukemia; 2170 nM with SF-539 CNS; 2140 nM in the test on M14 melanoma; 2640 nM with NCI-H226 lung; 2200 nM in the test on BT-549 breast. Further, the GI50 with HCC-2998 colon is 2690 nM; in the test with RPMI-8226 leukemia it was 2070 nM; in the test with MDA-MB-435, 2980 nM; in the test on UACC-257 melanoma, 2510 nM. In addition, the TGI amounted to 14300 nM in the test on OVCAR-8 ovarian; 49500 nM with K-562 leukemia; 5520 nM with SF-539 CNS; 5210 nM with M14 melanoma; 10100 nM in the test on NCI-H226 lung; 6750 nM in the test with BT-549 breast. Besides, the TGI was found to be 9690 nM in the test with HCC-2998 colon, 7060 nM in the test on RPMI-8226 leukemia, 9740 nM in the test on MDA-MB-435 and 8230 nM in the test on UACC-257 melanoma.
Consider `CCOC(=O)c1ccc(N(C=O)CCC(=O)CCl)cc1`, for which the GI50 is 99.8 nM in the test with OVCAR-8 ovarian; 35.3 nM in the test on K-562 leukemia; 249 nM in the test on SF-539 CNS; 55.3 nM in the test on M14 melanoma; 297 nM with NCI-H226 lung; 58.8 nM with BT-549 breast. For the same compound, the GI50 is 372 nM in the test on HCC-2998 colon, 130 nM in the test with RPMI-8226 leukemia, 90.8 nM in the test on MDA-MB-435 and 1500 nM in the test on UACC-257 melanoma. Besides, the TGI with OVCAR-8 ovarian was 11300 nM; in the test on K-562 leukemia it was > 69300 nM; with SF-539 CNS, 778 nM; in the test with M14 melanoma, 1500 nM; in the test with NCI-H226 lung, 1360 nM; in the test on BT-549 breast, 884 nM. The TGI in the test with HCC-2998 colon is 1540 nM; with RPMI-8226 leukemia, 2830 nM; in the test with MDA-MB-435, 370 nM; in the test with UACC-257 melanoma it was 8330 nM.
With `CCCCCCCCCCCCCCCC(=O)OCC1OC(OC)C(NC(=O)N(CCCl)N=O)C(O)C1O` (stereo not given), the TGI in the test with OVCAR-8 ovarian worked out at 45300 nM; in the test on K-562 leukemia, 62100 nM; with SF-539 CNS, 15300 nM; in the test on M14 melanoma it was 36400 nM; in the test on NCI-H226 lung it was 39700 nM; with BT-549 breast it was 99400 nM. For the same compound, the TGI was 48200 nM in the test on HCC-2998 colon, 61600 nM with RPMI-8226 leukemia, 31300 nM in the test on MDA-MB-435 and 47800 nM with UACC-257 melanoma.
With `CC(C)=CC(=O)N[C@@H]1CC2CCC3C(CC[C@@]4(C)C3CC[C@@H]4C(C)N(C)C)[C@@]2(C)C[C@@H]1O` (stereo not given in full), the GI50 is 12800 nM in the test with OVCAR-8 ovarian; 849 nM with K-562 leukemia; 1590 nM with SF-539 CNS; 1860 nM with M14 melanoma; 8040 nM in the test with NCI-H226 lung; 7570 nM in the test on BT-549 breast. For the same compound, the GI50 in the test on HCC-2998 colon was 5440 nM; in the test with RPMI-8226 leukemia, 2510 nM; in the test with MDA-MB-435, 2900 nM; in the test on UACC-257 melanoma, 3530 nM. Further, the TGI with OVCAR-8 ovarian is > 53200 nM; in the test on K-562 leukemia, 8490 nM; in the test with SF-539 CNS, 3360 nM; in the test on M14 melanoma, 3690 nM; with NCI-H226 lung it was > 41400 nM; with BT-549 breast it was 29300 nM. The TGI with HCC-2998 colon was 16800 nM; in the test on RPMI-8226 leukemia, 18500 nM; with MDA-MB-435, 10100 nM; in the test with UACC-257 melanoma it was 11200 nM.
On to `O=C1/C(=C/c2ccc(Cl)c(Cl)c2)CNC/C1=C\c1ccc(Cl)c(Cl)c1`, for which the TGI stood at 16000 nM in the test on OVCAR-8 ovarian; 19500 nM in the test with K-562 leukemia; 15900 nM with SF-539 CNS; 33900 nM in the test on M14 melanoma; 39900 nM with NCI-H226 lung; 87200 nM with BT-549 breast. For the same compound, the TGI in the test on HCC-2998 colon was 21700 nM; with RPMI-8226 leukemia, > 49800 nM; in the test with MDA-MB-435, 43700 nM; in the test on UACC-257 melanoma, 72800 nM.
`O=c1c2c(=NCCN3CCCC3)cc3c(=O)n(CCCN4CCOCC4)c(=O)c4ccc(c(O)n1CCCN1CCOCC1)c2c4-3`: the GI50 in the test on OVCAR-8 ovarian is 100 nM; in the test with K-562 leukemia, < 21.3 nM; with SF-539 CNS, 345 nM; in the test with M14 melanoma, 323 nM; with NCI-H226 lung it was 155 nM; in the test with BT-549 breast it was 917 nM. The GI50 in the test on HCC-2998 colon is 60.3 nM; with RPMI-8226 leukemia, 146 nM; with MDA-MB-435, 122 nM; in the test with UACC-257 melanoma, 707 nM. Moreover, the TGI in the test with OVCAR-8 ovarian was > 32800 nM; with K-562 leukemia, > 70400 nM; in the test with SF-539 CNS, 1430 nM; in the test on M14 melanoma, 1190 nM; with NCI-H226 lung, 830 nM; in the test on BT-549 breast, 2990 nM. The TGI in the test with HCC-2998 colon was determined as 563 nM; with RPMI-8226 leukemia it was 1090 nM; with MDA-MB-435, 264 nM; in the test with UACC-257 melanoma it was 3760 nM.
As for `O=C(Cc1ccc(Nc2ccnc(C(F)(F)F)c2)cc1)Nc1cc(Cl)ccc1O`, the GI50 in the test with OVCAR-8 ovarian was 20500 nM; in the test with K-562 leukemia it was 2960 nM; with SF-539 CNS, 7180 nM; in the test with M14 melanoma it was 12300 nM; with NCI-H226 lung, 10300 nM; with BT-549 breast it was 4070 nM. Further, the GI50 with HCC-2998 colon was 13600 nM; in the test on RPMI-8226 leukemia it was 1250 nM; in the test with MDA-MB-435, 4330 nM; with UACC-257 melanoma, 11800 nM. Also, the TGI was > 100000 nM in the test on OVCAR-8 ovarian; 12000 nM in the test with K-562 leukemia; 22000 nM in the test on SF-539 CNS; 33600 nM in the test with M14 melanoma; 32300 nM in the test on NCI-H226 lung; 22500 nM in the test on BT-549 breast. Moreover, the TGI with HCC-2998 colon turned out to be 28400 nM; in the test with RPMI-8226 leukemia, 4100 nM; in the test on MDA-MB-435 it was 17500 nM; with UACC-257 melanoma, 49800 nM.

Values taken from PubChem BioAssay (NCI).
